Experimental data reported in ChEMBL document CHEMBL1255251, “Effects of Escherichia coli lipopolysaccharide on telithromycin pharmacokinetics in rats: inhibition of metabolism via CYP3A” (Antimicrob Agents Chemother, 2008).

What was measured:
[1] = Clearance in Sprague-Dawley rat at 50 mg/kg, iv pretreated with Escherichia coli lipopolysaccharide (Rvb=32.4+/- 5.25 ml/min/kg); format: ADME, organism-based; parameters: dose 50 mg/kg, route intravenous; details: in vivo
[2] = Oral bioavailability in Sprague-Dawley rat at 50 mg/kg, po pretreated with Escherichia coli lipopolysaccharide (Rvb=38.8%); format: ADME, organism-based; details: in vivo
[3] = Tmax in Sprague-Dawley rat at 50 mg/kg, po pretreated with Escherichia coli lipopolysaccharide (Rvb=180 min); format: ADME, organism-based; parameters: dose 50 mg/kg, route oral; details: in vivo
[4] = Drug excretion in Sprague-Dawley rat urine assessed as unchanged drug at 50 mg/kg, po after 24 hrs pretreated with Escherichia coli lipopolysaccharide (Rvb=4.78 +/- 3.28 %); format: ADME, organism-based; parameters: dose 50 mg/kg, route oral; details: read-out: Drug uptake
[5] = Drug excretion in Sprague-Dawley rat urine assessed as unchanged drug at 50 mg/kg, iv after 24 hrs pretreated with Escherichia coli lipopolysaccharide (Rvb=16.5 +/- 2.32 %); format: ADME, organism-based; parameters: dose 50 mg/kg, route intravenous; details: read-out: Drug uptake
[6] = Half life in Sprague-Dawley rat at 50 mg/kg, po pretreated with Escherichia coli lipopolysaccharide (Rvb=123 +/- 63.4 min); format: ADME, organism-based; parameters: dose 50 mg/kg, route oral; details: in vivo
Rattus norvegicus [7] = assay: AUC in Sprague-Dawley rat at 50 mg/kg, po pretreated with Escherichia coli lipopolysaccharide (Rvb=609 +/- 323 ug/min/ml); format: ADME, organism-based, Plasma; parameters: dose 50 mg/kg, route oral; details: in vivo
Rattus norvegicus [8] = assay: AUC in Sprague-Dawley rat at 50 mg/kg, iv pretreated with Escherichia coli lipopolysaccharide (Rvb=1570 +/- 240 ug/min/ml); format: ADME, organism-based, Plasma; parameters: dose 50 mg/kg, route intravenous; details: in vivo
[9] = Renal clearance in Sprague-Dawley rat at 50 mg/kg, iv pretreated with Escherichia coli lipopolysaccharide (Rvb=5.29 +/- 0.643 ml/min/kg); format: ADME, organism-based, Kidney; parameters: dose 50 mg/kg, route intravenous; details: in vivo, read-out: CL_renal
[10] = Half life in Sprague-Dawley rat at 50 mg/kg, iv pretreated with Escherichia coli lipopolysaccharide (Rvb=159 +/- 56.3 min); format: ADME, organism-based; parameters: dose 50 mg/kg, route intravenous; details: in vivo
[11] = Drug absorption in Sprague-Dawley rat gastrointestinal tract at 50 mg/kg, po after 24 hrs pretreated with Escherichia coli lipopolysaccharide (Rvb=5.73 +/- 4.57 %); format: ADME, organism-based; parameters: dose 50 mg/kg, route oral
[12] = Drug absorption in Sprague-Dawley rat gastrointestinal tract at 50 mg/kg, iv after 24 hrs pretreated with Escherichia coli lipopolysaccharide (Rvb=8.53 +/- 4.64 %); format: ADME, organism-based; parameters: dose 50 mg/kg, route intravenous
[13] = Cmax in Sprague-Dawley rat at 50 mg/kg, po pretreated with Escherichia coli lipopolysaccharide (Rvb=2.35 +/- 1.19 ug/ml); format: ADME, organism-based; parameters: dose 50 mg/kg, route oral; details: in vivo
Rattus norvegicus [14] = assay: Nonrenal clearance in Sprague-Dawley rat at 50 mg/kg, iv pretreated with Escherichia coli lipopolysaccharide (Rvb=27.2 +/- 5.02 ml/min/kg); format: ADME, organism-based; parameters: dose 50 mg/kg, route intravenous; details: in vivo
[15] = Apparent volume of distribution in Sprague-Dawley rat at 50 mg/kg, iv pretreated with Escherichia coli lipopolysaccharide (Rvb=4,950 +/- 1160 ml/kg); format: ADME, organism-based; parameters: dose 50 mg/kg, route intravenous; details: in vivo, read-out: Vdss(app)
[16] = Renal clearance in Sprague-Dawley rat at 50 mg/kg, po pretreated with Escherichia coli lipopolysaccharide (Rvb=4.21 +/- 1.81 ml/min/kg); format: ADME, organism-based, Kidney; parameters: dose 50 mg/kg, route oral; details: in vivo, read-out: CL_renal

- clearance [1]: 19.4 mL/min/kg
- bioavailability [2]: 50.7%
- Tmax [3]: 3 h
- dose excreted at 24 h [4]: 9.54%
- dose excreted at 24 h [5]: 23.8%
- half-life [6]: 140 min
- AUC (Rattus norvegicus [7]): 1460 µg/min/mL
- AUC (Rattus norvegicus [8]): 2880 µg/min/mL
- CL renal [9]: 4.27 mL/min/kg
- half-life [10]: 153 min
- percent of dose recovered from gastrointestinal tract at 24 h [11]: 9.63%
- percent of dose recovered from gastrointestinal tract at 24 h [12]: 5.31%
- Cmax [13]: 5030 ng/mL
- CL (Rattus norvegicus [14]): 15.1 mL/min/kg
- Vd [15]: 3.28 L/kg
- CL renal [16]: 3.17 mL/min/kg
SMILES: CC[C@H]1OC(=O)[C@H](C)C(=O)[C@H](C)[C@@H](O[C@@H]2O[C@H](C)C[C@H](N(C)C)[C@H]2O)[C@](C)(OC)C[C@@H](C)C(=O)[C@H](C)[C@H]2N(CCCCn3cnc(-c4cccnc4)c3)C(=O)O[C@]12C [TELITHROMYCIN]
